Experimental findings from BindingDB's records for doi:10.1021/jm950655o (University of Arizona, 1996) are described below.

Broadly, the IC50 is the midpoint of a concentration-inhibition curve. Higher therefore signals a need for much substance.

This assay concerns the target Delta-type opioid receptor (Cavia porcellus). Briefly: Inhibition of binding [3H]cyclo[D-Pen2,p-Cl,-Phe4,D-Pen5] enkephalin to Opioid receptor delta 1 of guinea pig brain membrane (GPB) homogenates.

In turn, `CC[C@H](C)[C@H](NC(=O)[C@H](CCCN=C(N)N)NC(=O)[C@H](CCCN=C(N)N)NC(=O)[C@H](CC(C)C)NC(=O)[C@H](Cc1ccccc1)NC(=O)[C@H](Cc1ccc(O)cc1)NC(=O)CNC(=O)[C@@H](N)Cc1ccc(O)cc1)C(=O)N[C@@H](CCCN=C(N)N)C(=O)N1CCC[C@H]1C(=O)N[C@@H](CCCCN)C(N)=O` had an IC50 above 10 µM.
